According to patent US7091174B2, “Caloxins” (McMaster University, priority 2000, dated 2006):
Ends that are not written are not given here.

Legend:
[1] = target: T1, erythrocyte leaky ghost Ca^2+—Mg^2+-ATPase (PM Ca^2+ pump) (Homo sapiens, UniProt P23634); test: Ca2+-Mg2+-ATPase assay with human erythrocyte leaky ghosts (fluorometric coupled enzyme assay); assay type: biochemical
T1 construct: Human erythrocyte leaky ghosts (Jarrett et al. (1978)) were assayed for ATPase; from tissue; host or cells: human erythrocyte leaky ghosts prepared from human blood
Procedure: FIG. 1A is a graph showing Ca^2+—Mg^2+-ATPhase inhibition by caloxin 2A1. Human erythrocyte leaky ghosts (Jarrett et al. (1978)) were assayed for ATPase as described previously (Niggli et al. (1981); Grover (1988)) but by fluorometry. The drawn curve is from a total of 32 data points. Error bars where shown are SEM values.
The present invention includes all caloxins isolated according to the method of the invention. Caloxins can be tested for their ability to inhibit the plasma membrane Ca^2+-pump using various assays. In particular, PM Ca^2+ pump is a Ca^2+—Mg^2+-ATPase that binds ATP in presence of Ca^2+ to form an acylphosphate which is then hydrolysed upon Ca^2+ translocation (Guerini (1998)). The effect of caloxins on PM Ca^2+ pump can be tested in two assays using human erythrocyte leaky ghosts: Ca^2+—Mg^2+-ATPase and acylphosphate formation. In particular the inventors have shown that caloxin 2A-1 inhibits erythrocyte leaky ghost Ca^2+—Mg^2+-ATPase (FIG. 1A) producing 50% inhibition at 0.4±0.1 mM. Caloxin 2A-1 inhibits the PM Ca^2+-pump selectively. At a concentration of 0.9 mM, caloxin 2A1 inhibits the erythrocyte ghost Ca^2+—Mg^2+-ATPase by 78±4% but with no effect on Mg^2+-ATPase or Na^+—K^+-ATPase in the ghosts or the Ca^2+—Mg^2+-ATPase in skeletal muscle sarcoplasmic reticulum (FIG. 1B). The inhibition is selective to caloxin 2A1 because 0.9 mM of a peptide with randomized caloxin 2A1 sequence (SWSSFPGSGGVSNPN-amide, SEQ.ID.NO.5) has no effect (FIG. 1B) neither does the large mixture of peptides contained in the casein pancreatic hydrolysate (data not shown). Thus, caloxin 2A1 is selective in that it inhibits the PM Ca^2+-pump and not other ATPases. […] Caloxin 2A1 was selected by binding to a PMCA1 sequence but it inhibits PM Ca^2+-pump in erythrocyte ghosts which express mainly PMCA4. This finding is consistent with the high degree of similarity between sequences of PMCA genes in this domain (Swiss Protein Bank accession numbers P20020, Q01814, Q16720, P23634) although we have not ruled out that caloxin 2A1 has different affinities for each isoform. The second PM Ca^2+-pump assay consisted of Ca^2+-dependent formation of the acid stable 140 kDa acylphosphate intermediate from ^32P-γ-ATP in erythrocyte leaky ghosts.
1.2. Ca^2+—Mg^2+-ATPase assay with human erythrocyte leaky ghosts: A major hurdle was the lack of an appropriate assay. The difficulties were: (a) calmodulin needed for the PM Ca^2+ pump activity binds on the cytosolic surface of the pump protein and caloxins by definition bind on the outside surface, (b) most tissues have very active ecto-Mg^2+-ATPase and an ER Ca^2+—Mg^2+-ATPase—the latter can be inhibited by thapsigargin but the former poses a major problem. Erythrocyte ghosts contain mostly plasma membrane. Finally we used human erythrocyte ghosts which have low ecto-Mg^2+-ATPase. Fluorometric coupled enzyme assays are more sensitive. We purchased microcuvettes (100–150 μl) for our fluorometer (SPEX Fluorolog 112) with a heated chamber (37° C.) and made the appropriate cuvette adapter. We first monitor basal Mg^2+-ATPhase as slope for the disappearance of NADH fluorescence (ex=340, em=440 nm) in a solution containing 0.2–0.4 mg ghost protein, 0.1 mM ouabain, 100 mM NaCl, 20 mM KCl, 6 mM MgCl2, 30 mM imidazole-HCl pH 7.0, 0.5 mM EDTA, 0.6 mM NADH, 1 mM pyruvate enol phosphate, excess pyruvate kinase-[…], 0.5 mM ATP, 0.5 mM EGTA and 4 ug/ml calmodulin. […] Na^+—K^+-ATPase can be monitored without CaCl2 and ouabain.

pig coronary artery = test: Endothelium dependent relaxation of pig coronary artery pre-contracted with KCl; conditions: pig coronary artery precontracted with KCl, FIG. 3
[2] = target: T2, PM Ca^2+-pump 140 kDa acylphosphate intermediate (Homo sapiens, UniProt P23634); test: Ca2+-dependent acylphosphate formation from 32P-gamma-ATP in erythrocyte leaky ghosts; assay type: biochemical; conditions: 3.4 mM peptide, FIG. 1C
T2 construct: from tissue; host or cells: human erythrocyte leaky ghosts
T2 sequence (P23634 1-1205 isoform P23634-6): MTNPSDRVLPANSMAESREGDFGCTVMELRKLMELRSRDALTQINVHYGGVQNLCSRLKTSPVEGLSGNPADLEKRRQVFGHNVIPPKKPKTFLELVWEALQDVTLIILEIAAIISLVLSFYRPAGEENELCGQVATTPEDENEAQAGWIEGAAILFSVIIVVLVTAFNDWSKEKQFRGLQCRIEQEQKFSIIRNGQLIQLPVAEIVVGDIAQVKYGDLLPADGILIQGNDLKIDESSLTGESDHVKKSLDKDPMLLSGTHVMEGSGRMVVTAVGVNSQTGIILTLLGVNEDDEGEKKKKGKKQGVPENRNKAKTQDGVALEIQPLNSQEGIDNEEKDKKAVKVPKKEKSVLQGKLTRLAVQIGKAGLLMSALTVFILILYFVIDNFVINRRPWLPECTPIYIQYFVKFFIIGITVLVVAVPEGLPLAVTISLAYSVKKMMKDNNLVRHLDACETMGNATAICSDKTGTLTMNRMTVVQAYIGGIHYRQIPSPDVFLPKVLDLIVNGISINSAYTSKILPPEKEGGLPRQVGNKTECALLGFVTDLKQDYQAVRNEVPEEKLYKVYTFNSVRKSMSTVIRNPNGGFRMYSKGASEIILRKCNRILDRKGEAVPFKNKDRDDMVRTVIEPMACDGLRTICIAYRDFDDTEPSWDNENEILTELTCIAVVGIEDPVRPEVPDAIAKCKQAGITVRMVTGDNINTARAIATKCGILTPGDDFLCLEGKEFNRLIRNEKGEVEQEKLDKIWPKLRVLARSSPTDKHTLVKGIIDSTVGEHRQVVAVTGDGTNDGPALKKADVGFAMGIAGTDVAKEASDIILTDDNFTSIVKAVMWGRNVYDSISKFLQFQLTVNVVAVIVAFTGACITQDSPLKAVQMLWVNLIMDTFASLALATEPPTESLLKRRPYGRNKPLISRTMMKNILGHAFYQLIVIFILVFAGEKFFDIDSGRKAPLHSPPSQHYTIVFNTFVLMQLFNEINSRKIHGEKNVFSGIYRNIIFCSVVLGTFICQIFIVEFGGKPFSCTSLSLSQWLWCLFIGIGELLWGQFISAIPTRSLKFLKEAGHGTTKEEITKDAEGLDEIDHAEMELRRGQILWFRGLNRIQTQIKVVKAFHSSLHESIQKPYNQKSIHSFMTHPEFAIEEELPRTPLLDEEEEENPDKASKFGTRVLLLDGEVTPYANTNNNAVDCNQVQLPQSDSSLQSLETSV
Procedure: FIG. 1C is gel showing acylphosphate formation with 3.4 mM caloxin 2A1 or a random peptide. The acylphosphate reaction was carried out and samples analyzed by acid gel electrophoresis as previously described (Grover et al. (1988); Wuytack et al. (1984)). EGTA=1 mM, and CaCl2=0.05 mM.
(§1) The present invention includes all caloxins isolated according to the method of the invention. Caloxins can be tested for their ability to inhibit the plasma membrane Ca^2+-pump using various assays. In particular, PM Ca^2+ pump is a Ca^2+—Mg^2+-ATPase that binds ATP in presence of Ca^2+ to form an acylphosphate which is then hydrolysed upon Ca^2+ translocation (Guerini (1998)). The effect of caloxins on PM Ca^2+ pump can be tested in two assays using human erythrocyte leaky ghosts: Ca^2+—Mg^2+-ATPase and acylphosphate formation. In particular the inventors have shown that caloxin 2A-1 inhibits erythrocyte leaky ghost Ca^2+—Mg^2+-ATPase (FIG. 1A) producing 50% inhibition at 0.4±0.1 mM. Caloxin 2A-1 inhibits the PM Ca^2+-pump selectively. At a concentration of 0.9 mM, caloxin 2A1 inhibits the erythrocyte ghost Ca^2+—Mg^2+-ATPase by 78±4% but with no effect on Mg^2+-ATPase or Na^+—K^+-ATPase in the ghosts or the Ca^2+—Mg^2+-ATPase in skeletal muscle sarcoplasmic reticulum (FIG. 1B). […]

[3] = test system: Mg^2+-ATPase in the ghosts; test: Mg2+-ATPase in erythrocyte ghosts; assay type: biochemical, human; conditions: 0.9 mM
Excerpt: (§2) FIG. 1B is a bar graph showing the selectivity of caloxin 2A1 for inhibition of PM Ca^2+—Mg^2+-ATPase using caloxin 2A1 or a random peptide (RP). G=ghosts and S=skeletal muscle sarcoplasmic reticulum, Type of ATPhase activity monitored is shown as Ca^2+—Mg^2+, Mg^2+ or Na^+—K^+-ATPase.
(§3) The present invention includes all caloxins isolated according to the method of the invention. Caloxins can be tested for their ability to inhibit the plasma membrane Ca^2+-pump using various assays. In particular, PM Ca^2+ pump is a Ca^2+—Mg^2+-ATPase that binds ATP in presence of Ca^2+ to form an acylphosphate which is then hydrolysed upon Ca^2+ translocation (Guerini (1998)). The effect of caloxins on PM Ca^2+ pump can be tested in two assays using human erythrocyte leaky ghosts: Ca^2+—Mg^2+-ATPase and acylphosphate formation. […]
(§4) 1.2. […] We first monitor basal Mg^2+-ATPhase as slope for the disappearance of NADH fluorescence (ex=340, em=440 nm) in a solution containing 0.2–0.4 mg ghost protein, 0.1 mM ouabain, 100 mM NaCl, 20 mM KCl, 6 mM MgCl2, 30 mM imidazole-HCl pH 7.0, 0.5 mM EDTA, 0.6 mM NADH, 1 mM pyruvate enol phosphate, excess pyruvate kinase-[…], 0.5 mM ATP, 0.5 mM EGTA and 4 ug/ml calmodulin. […] Na^+—K^+-ATPase can be monitored without CaCl2 and ouabain.

[4] = test system: T3, Ca^2+—Mg^2+-ATPase in skeletal muscle sarcoplasmic reticulum; test: Ca2+-Mg2+-ATPase in skeletal muscle sarcoplasmic reticulum; assay type: biochemical; conditions: 0.9 mM
T3 construct: G=ghosts and S=skeletal muscle sarcoplasmic reticulum; from tissue; host or cells: skeletal muscle sarcoplasmic reticulum
T3 sequence (O14983 whole entry): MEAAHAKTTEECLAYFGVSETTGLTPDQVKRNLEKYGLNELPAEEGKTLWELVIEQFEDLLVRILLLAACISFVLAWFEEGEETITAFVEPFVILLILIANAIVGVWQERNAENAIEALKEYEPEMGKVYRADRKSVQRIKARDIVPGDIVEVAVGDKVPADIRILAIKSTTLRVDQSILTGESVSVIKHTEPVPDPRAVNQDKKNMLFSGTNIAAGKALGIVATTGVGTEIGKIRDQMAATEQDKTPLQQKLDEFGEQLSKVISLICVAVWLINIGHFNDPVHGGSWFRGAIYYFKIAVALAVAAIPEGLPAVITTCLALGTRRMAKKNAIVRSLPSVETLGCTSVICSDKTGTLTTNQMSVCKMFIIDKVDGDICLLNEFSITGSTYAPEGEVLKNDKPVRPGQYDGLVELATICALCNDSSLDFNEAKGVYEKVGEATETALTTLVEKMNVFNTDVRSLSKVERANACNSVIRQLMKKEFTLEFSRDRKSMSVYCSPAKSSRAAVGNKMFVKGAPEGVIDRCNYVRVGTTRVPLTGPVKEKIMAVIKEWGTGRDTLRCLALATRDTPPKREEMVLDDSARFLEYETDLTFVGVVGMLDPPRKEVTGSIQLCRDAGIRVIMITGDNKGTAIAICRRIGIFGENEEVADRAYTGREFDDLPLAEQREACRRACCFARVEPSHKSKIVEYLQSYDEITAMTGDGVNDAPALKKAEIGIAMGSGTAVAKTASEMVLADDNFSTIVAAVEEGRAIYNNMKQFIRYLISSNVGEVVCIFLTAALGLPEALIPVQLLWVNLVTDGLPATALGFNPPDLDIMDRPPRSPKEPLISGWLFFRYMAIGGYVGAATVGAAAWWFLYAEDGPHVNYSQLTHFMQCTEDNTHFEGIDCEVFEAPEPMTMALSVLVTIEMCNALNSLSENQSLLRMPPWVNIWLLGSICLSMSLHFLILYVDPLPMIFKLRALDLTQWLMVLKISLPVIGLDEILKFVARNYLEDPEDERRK
Excerpt: as §2, §1

PMCA4 = target: T4, PMCA4 (Homo sapiens, UniProt P23634); test: Ca2+-Mg2+-ATPase activity in microsomes of COS-M6 cells transfected with PMCA4; assay type: biochemical; conditions: read-out: inhibition of PMCA4 Ca^2+—Mg^2+-ATPase
T4 construct: expressed in transfected cells; host or cells: COS-M6 cells, microsomes
T4 sequence (P23634 1-1241): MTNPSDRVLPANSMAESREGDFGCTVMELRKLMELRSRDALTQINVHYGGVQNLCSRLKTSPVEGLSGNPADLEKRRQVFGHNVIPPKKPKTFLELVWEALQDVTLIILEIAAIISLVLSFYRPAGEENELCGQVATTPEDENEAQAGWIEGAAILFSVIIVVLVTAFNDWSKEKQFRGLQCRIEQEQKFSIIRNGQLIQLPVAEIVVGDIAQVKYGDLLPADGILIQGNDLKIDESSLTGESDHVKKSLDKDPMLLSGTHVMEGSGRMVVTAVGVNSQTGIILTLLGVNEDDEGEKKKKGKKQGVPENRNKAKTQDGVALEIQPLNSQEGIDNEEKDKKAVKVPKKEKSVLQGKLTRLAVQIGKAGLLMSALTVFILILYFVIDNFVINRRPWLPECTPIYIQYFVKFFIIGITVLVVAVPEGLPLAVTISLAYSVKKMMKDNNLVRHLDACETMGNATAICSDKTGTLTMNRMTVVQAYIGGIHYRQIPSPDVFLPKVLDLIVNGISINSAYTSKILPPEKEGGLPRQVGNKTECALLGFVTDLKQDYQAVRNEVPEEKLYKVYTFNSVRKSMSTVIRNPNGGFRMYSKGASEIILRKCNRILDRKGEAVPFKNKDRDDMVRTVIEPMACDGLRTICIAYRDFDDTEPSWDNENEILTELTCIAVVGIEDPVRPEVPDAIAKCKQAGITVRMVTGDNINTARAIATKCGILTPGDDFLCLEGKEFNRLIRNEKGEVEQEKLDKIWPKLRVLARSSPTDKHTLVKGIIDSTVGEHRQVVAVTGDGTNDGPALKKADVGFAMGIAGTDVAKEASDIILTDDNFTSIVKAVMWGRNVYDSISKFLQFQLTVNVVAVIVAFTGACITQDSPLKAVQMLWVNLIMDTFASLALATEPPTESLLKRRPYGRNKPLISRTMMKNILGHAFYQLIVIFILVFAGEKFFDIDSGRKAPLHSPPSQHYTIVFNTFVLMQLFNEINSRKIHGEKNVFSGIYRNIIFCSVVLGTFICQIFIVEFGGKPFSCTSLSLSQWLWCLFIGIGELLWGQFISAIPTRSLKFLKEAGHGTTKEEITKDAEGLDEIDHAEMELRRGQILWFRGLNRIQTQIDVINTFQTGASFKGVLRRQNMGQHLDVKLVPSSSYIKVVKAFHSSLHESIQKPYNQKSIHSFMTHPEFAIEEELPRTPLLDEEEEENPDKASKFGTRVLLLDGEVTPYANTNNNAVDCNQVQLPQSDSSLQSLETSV
Excerpt: (§5) PM Ca^2+-pump isoforms are encoded by 4 different genes. The inventors determined the effects of caloxin 2A1 on different isoforms. Cos M6 cells were transfected with this DNA using Fugene (purchased from Roche). Microsomes from SF9 cells expressing PMCA2 were a gift from Dr. A. Filoteo.
(§6) PMCA4 plasmid was transfected into COS-M6 cells. Thirty six to 48 hr later, microsomes were made from these cells and overexpression of the protein was confirmed using Western Blot. The Ca^2+—Mg^2+-ATPase activity in the microsomes was determined. The assay solutions included the following additional reagents: 0.05% Triton X-100, 5 mM sodium azide and 10 uM cyclopiazonic acid. Results: In a total of 22 determinations, the inhibition produced by 0.46,0.94 and 1.87 mM caloxin 2A1 on PMCA4 was 29, 47 and 58%, respectively.

[5] = test system: Na^+—K^+-ATPase in the ghosts; test: Na+-K+-ATPase in erythrocyte ghosts; assay type: biochemical, human; conditions: 0.9 mM
Excerpt: as §2, §3, §4

PMCA2b = test: Ca2+-Mg2+-ATPase activity in microsomes from SF9 cells expressing PMCA2; assay type: biochemical; conditions: 1.87 mM; two experiments
Excerpt: as §5, §6

rat aortic rings = test: Endothelium dependent relaxation of rat aorta rings precontracted with phenylephrine; conditions: precontracted with 0.5 μM phenylephrine, 0.34 mM caloxin 2A1, reversed by L-NAME
Procedure: Rat aorta rings were hung in organ bath as previously described. The rings were contracted with submaximum (0.5 μM) phenylephrine before adding 0.34 mM caloxin 2A1 and 0.1 mM L-nitroarginylmethyl ester) as shown. Each experiment was replicated at least four times.
Inhibiting the PM Ca^2+ pump in vascular endothelium should increase cytosolic Ca^2+, thereby activating endothelial nitric oxide synthase to relax arteries (Rees et al. (1990); Sato et al. (1990)). […] Thus caloxin 2A1 produced the biological effect in the endothelium which was expected from its inhibiting PM Ca^2+-pump.
1.3. […] We anesthetized a rats by methoxyfluorane (Metofane) inhalation and removed its thoracic aorta as 3 mm rings. These tissues relax to 1 μM carbachol after they have been contracted with phenylephrine (0.5 to 2 μM). We initially tried to do these experiments in Na^+-free solution but the tissues gave very poor contractions to phenylephrine. In Na^+-free solution, the tissues contracted to 20–80 mM KCl but relaxation with carbachol was poor. We reverted to using phenylephrine but in Na^+-containing Krebs' solution.

Substance | effect on erythrocyte ghost Ca^2+—Mg^2+-ATPase (in words) ([1]; concentration not given) | endothelium dependent relaxation of coronary arteries (pig coronary artery) | endothelium dependent relaxation of coronary arteries (pig coronary artery; listed as Caloxin 3A1) | effect on erythrocyte ghost Ca^2+—Mg^2+-ATPase (in words) ([1]; 0.9 mM peptide, FIG. 1B) | inhibition of acylphosphate formation [2] | effect on Mg^2+-ATPase in the ghosts [3] | effect on Ca^2+—Mg^2+-ATPase in skeletal muscle sarcoplasmic reticulum [4] | inhibition at 460 µM (PMCA4; 0.46 mM) [%] | inhibition at 940 µM (PMCA4; 0.94 mM) [%] | inhibition at 1870 µM (PMCA4; 1.87 mM) [%] | effect on Na^+—K^+-ATPase in the ghosts [5] | inhibition of erythrocyte ghost Ca^2+—Mg^2+-ATPase ([1]; 0.9 mM peptide) [%] | IC50 ([1]; human erythrocyte leaky ghosts, read-out: concentration producing 50% inhibition of erythrocyte leaky ghost Ca^2+—Mg^2+-ATPase) [µM] | average inhibition of PMCA2b (PMCA2b) [%] | relaxation of rat aortic rings (rat aortic rings) | relaxation of rat aortic rings (rat aortic rings; listed as Caloxin 2A1)
Acetyl-DSHINNEPSRRRGGGK (Ac-DSHINNEPSRRRGGGK; listed as Homo sapiens) [caloxin 3A1, peptide isolated by phage display screening against PMCA874] | inhibits | endothelium dependent relaxation | produces an endothelium dependent relaxation |  |  |  |  |  |  |  |  |  |  |  |  | 
SWSSFPGSGGVSNPN-amide (SWSSFPGSGGVSNPN-NH2; listed as Homo sapiens) [randomized peptide, reference compound] |  |  |  | no effect | does not |  |  |  |  |  |  |  |  |  |  | 
VSNSNWPSFPSSGGG-NH2 [caloxin 2A1, VSNSNWPSFPSSGGG-amide] |  |  |  | significant (p<0.05) inhibition | inhibits the acylphosphate formation | no effect | no effect | 29 | 47 | 58 | no effect | 78±4 | 400 ± 100 | 46 | produced a relaxation | relaxed the aortic rings
